Patent US7074765B2, “Synthetic peptide analogs of Arg-Pro-Pro-Gly-Phe as selective inhibitors of thrombin and thrombin activation of protease activated receptors 1 and 4” (The Regents of the University of Michigan, priority 2003, dated 2006)

Legend:
PC-3 cells = assay: Thrombin-induced motility of prostate cancer cells (Boyden chamber); type: cell-based; settings: 100 μM; 2 nM α-thrombin
Description: Motility assays are performed with a modified Boyden chamber (tissue culture-treated, 6.5 mm diameter, 10 μm thickness, 8 μm pores). In the motility assays, 2.5×10^4 cells are plated in the top chamber of non-coated polyethylene teraphthalate (PET) membranes (24-well insert, pore size […]; Becton Dickinson). […] RPMI 10% fetal bovine serum is used as a chemoattractant in the lower chamber. […] The cells that transverse the membranes are stained with Dip-Quick (Jorgensen Laboratories, Loveland, Colo.). Cells in five random fields of view at 200× are counted and expressed as the average number of cells/field of view. […]

[1] = system: normal human citrated plasma; assay: activated partial thromboplastin time (APTT); type: biochemical; settings: normal human plasma; p<0.05
Description: (§1) The influence of the various peptide formulations used in the present invention on established coagulation-based assays was determined. The activated partial thromboplastin time (APTT) is performed by mixing 0.05 ml normal human citrated plasma with 0.05 ml activated partial thromboplastin reagent purchased from Organon Teknika, Research Triangle Park, N.C. in the absence or presence of a peptide inhibitor. After incubation for 5 min at 37° C., the mixture is recalcified with 0.05 ml of 30 mM calcium chloride and the time to clot formation is measured in an Amelung KC4A instrument (Sigma Chemical Corp, St. Louis, Mo.) (Hasan et al. Thrombosis and Haemostasis. 82, 1182–1187 (1999)). The prothrombin time (PT) is performed by mixing 0.05 ml normal human citrated plasma with 0.05 ml Simplastin (Organon Teknika, Research Triangle Park, N.C.) followed by incubation for 3 min at 37° C. in the absence or presence of a peptide inhibitor. At the addition of 0.05 ml of 30 mM calcium chloride, the time to clot formation is measured in an KC4A instrument (Sigma Chemical Corp, St. Louis, Mo.) (Hasan et al. Thrombosis and Haemostasis. 82, 1182–1187 (1999)). The thrombin clotting time (TCT) is performed by adding 0.1 ml normal human citrated plasma in the absence or presence of a peptide inhibitor and 0.05 ml of a α-thrombin solution such that the final concentration of the thrombin in the entire mixture was 1 nM. Upon addition of the thrombin, the time to clot formation is measured in an KC4A instrument (Sigma Chemical Corp, St. Louis, Mo.). In FIG. 5, peptide TH146 produces a significant prolongation (p<0.05) of the activated partial thromboplastin time at 15 μM, of the prothrombin time at 60 μM, and the thrombin clotting time at 15 μM. In FIG. 6, peptide MAP4-TH146 produced a significant prolongation (p<0.05) of the activated partial thromboplastin time at 0.195 μM, of the prothrombin time at 3.125 μM, and the thrombin clotting time at 0.39 μM.

VCaP cells = assay: α-thrombin-induced intracellular calcium mobilization in VCaP cells; type: cell-based; settings: 2 nM α-thrombin
Description: FIG. 13 examines the influence of MAP4-TH146 on thrombin-induced calcium mobilization in two prostate cancer cell lines that functionally express PAR 1. In Panel A, the influence of MAP4-TH146 on 2 nM α-thrombin-induced intracellular calcium mobilization in VCaP cells. Calcium flux is abolished by […]. At 6.25 μM MAP4-TH146, there is full recovery of thrombin-induced calcium flux. In Panel B, the influence of MAP4-TH146 on 2 nM α-thrombin-induced intracellular calcium mobilization in PC3 cells. Calcium flux is abolished by 200 μM MAP4-TH146. At 1.56 μM MAP4-TH146, calcium flux recovers.

[2] = system: normal human citrated plasma; assay: prothrombin time (PT); type: biochemical; settings: normal human plasma; p<0.05
Description: as §1

[3] = system: normal human lung fibroblasts (NHLF); assay: α-thrombin-induced calcium mobilization in fibroblasts; type: cell-based
Description: The second assay developed to assess peptides from the combinatorial libraries uses inhibition of α-thrombin-induced calcium mobilization in fibroblasts. Normal human lung fibroblasts (NHLF) were purchased from Clonetics, San Diego, Calif., an affiliate of Bio-Wittaker, Walkersville, Md. The cytoplasmic free Ca^2+ concentration ([Ca^2+]i) was measured using the fluorescent Ca^2+ indicator fura-2 (Molecular Probes, Inc., Eugene, Oreg.). Suspension of fibroblasts in Hepes-Tyrode's buffer were loaded with fura-2 by incubation at 37° C. with 2 μM fura-2/acetoxymethyl ester for 45 minutes according to the method of Rasmussen et al., J. Biol. Chem. 268, 14322 (1993). The labeled fibroblasts were separated from excess probe by washing by centrifugation at 1000 rpm (180×g). Aliquots of the labeled fibroblasts were transferred into a quartz cuvette with a magnetic stirrer, which was then placed in a thermostatically controlled chamber at 37° C. in a fluorescence spectrophotometer (Perkin-Elmer LS50B spectrofluorometer, Chicago, Ill.). Reagents, test peptide, and α-thrombin (0.25–2 nM), were sequentially added directly to the cuvette. The excitation wavelengths varied between 340 and 380 nm. Fluorescence was measured by recording emitted light at 510 nm as reported by Fisher et al., Mol Pharm. 35, 195 (1989). The minimum emission was determined on a solubilized fibroblast sample in the presence of 10 mM EDTA; maximum emission was determined on the same sample with 10 mM Ca^2+ added. The intrafibroblast free Ca^2+ concentration was calculated by the method of Grykiewicz et al., J. Biol. Chem. 260, 3440 (1985). […] The KD for fura-2 was assumed to be 224 nM. Rmax and Rmin are the maximum and minimum fluorescence ratios measured at the end of the experiment, respectively; Sf2 and Sb2 are the fluorescence values at 380 nm in the absence and presence of saturating [Ca^2+], respectively. The reaction was monitored for 3–5 minutes.

[4] = system: normal human citrated plasma; assay: thrombin clotting time (TCT); type: biochemical; settings: normal human plasma; p<0.05
Description: as §1

## β-Ala-Lys-2Lys-4(D-Arg-Oic-Pro-Gly-Phe) [MAP4-rOicPGF]
PC-3 cells
  effect on thrombin-induced PC-3 cell motility: block
[1]
  concentration giving significant prolongation of the APTT: 0.195 µM
VCaP cells; 6.25 μM peptide
  effect on thrombin-induced calcium flux: full recovery
VCaP cells; 200 (unit not given) peptide
  effect on thrombin-induced calcium flux: abolished
[2]
  concentration giving significant prolongation of the PT: 3.125 µM
[3]; 0.25 nM α-thrombin
  concentrations that blocked α-thrombin-induced Ca^2+ mobilization in fibroblasts: ≥ 3.1 µM
[3]; 0.2 mM peptide, 2 nM alpha thrombin
  inhibition of calcium mobilization: 98%
[3]; 0.0016 (unit not given) peptide, 2 nM alpha thrombin
  effect on alpha thrombin-induced calcium mobilization: full recovery
[4]
  concentration giving significant prolongation of the TCT: 0.39 µM
